Measured values from paper PMC9144807, “Fluorine-18 Labeled Urea-Based Ligands Targeting Prostate-Specific Membrane Antigen (PSMA) with Increased Tumor and Decreased Renal Uptake” (Pharmaceuticals, 2022).
Where “and” joins values, the source holds several entries; their conditions need not be identical. Identical values can stand only once.

How the values were obtained:
PSMA [1] = molecular target: T1, PSMA (Homo sapiens, UniProt Q04609); test: In vitro competition binding assay with [18F]DCFPyL as radioligand, PC3(+) tumor membrane preparations
T1 construct: expressed in transfected cells; host or cells: PC3(+) (PC3 human prostate cancer cells transfected with human PSMA), grown as xenograft tumors in athymic mice; tumor membrane preparations
T1 sequence (Q04609 whole entry): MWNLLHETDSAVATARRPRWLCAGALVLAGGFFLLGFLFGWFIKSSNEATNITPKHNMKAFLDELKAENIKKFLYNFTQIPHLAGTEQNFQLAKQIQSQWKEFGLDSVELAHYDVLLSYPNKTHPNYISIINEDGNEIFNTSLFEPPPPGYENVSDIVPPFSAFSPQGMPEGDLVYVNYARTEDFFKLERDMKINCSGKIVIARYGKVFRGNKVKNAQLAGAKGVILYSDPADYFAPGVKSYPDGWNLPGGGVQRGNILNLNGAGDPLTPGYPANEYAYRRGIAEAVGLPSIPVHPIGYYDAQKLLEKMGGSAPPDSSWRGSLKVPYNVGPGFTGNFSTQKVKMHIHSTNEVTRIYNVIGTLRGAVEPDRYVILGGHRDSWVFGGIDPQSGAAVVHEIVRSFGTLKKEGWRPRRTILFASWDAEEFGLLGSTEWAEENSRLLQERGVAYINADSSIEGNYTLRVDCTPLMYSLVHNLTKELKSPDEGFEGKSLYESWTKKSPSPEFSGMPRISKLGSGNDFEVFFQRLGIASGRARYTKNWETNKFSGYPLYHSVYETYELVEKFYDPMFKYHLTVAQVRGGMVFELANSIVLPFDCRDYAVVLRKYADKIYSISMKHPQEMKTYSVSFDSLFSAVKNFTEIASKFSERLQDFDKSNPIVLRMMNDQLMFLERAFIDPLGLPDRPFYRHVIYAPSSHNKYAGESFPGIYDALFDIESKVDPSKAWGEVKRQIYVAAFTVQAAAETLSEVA

PSMA [2] = molecular target: T1, PSMA; test: In vitro saturation binding assay with PC3(+) tumor membrane preparations; details: saturation assays, mean (SE), n = 3–5
Experimental: (§1) PC3(−) (wildtype human prostate cancer cell line, PSMA negative) and PC3(+) (transfected with human PSMA) were provided by Dr. Hisataka Kobayashi. Cell lines were grown at 37 °C in 5% CO2 in RPMI-1640 supplemented with 10% FBS, 2 mM L-glutamine and Pen/Strep/Amphotericin B. PC3(+) and PC3(−) cell suspensions [2 × 10^6 cells; PBS:Matrigel (70:30)] from in vitro cell culture were subcutaneously implanted (right shoulder) into athymic mice (Athymic NCr- nu/nu, Charles River Laboratory, 4 weeks old) for use as positive and negative controls, respectively, for in vitro or in vivo studies. When tumors reached the appropriate size (>100 mg) the xenograft mice were used for in vivo biodistributions and imaging studies or the tumors were excised and further processed to obtain membrane preparations for in vitro assays as described previously.
In vitro saturation studies were performed to determine binding affinities (Kd) and PSMA expression levels (Bmax) using tumor membrane preparations from PC3(−) and PC3(+) PSMA xenografts (human prostate cancer cell line transfected with human PSMA; PC3(+)). […] Filter papers were collected, and the radioactive content was quantified by gamma counting (PerkinElmer 2480 Wizard3). […] Aliquots of each membrane preparation were taken for the determination of the protein concentration (Bradford method).

[3] = Fraction of intact tracer (parent) in blood and kidney by TLC; assay type: in vivo, mice; details: 60 min; mean ± SD, n = 2–5
Source text: In some cases, additional blood samples and/or tissue samples after gamma counting were taken for determining the fraction of intact radiolabeled tracer (parent) using thin-layer chromatography (TLC). For these TLC determinations: tissues were placed in equal volumes of acetonitrile and homogenized, or serum was obtained from the blood samples and mixed with an equal volume of acetonitrile. Following centrifugation of the samples, supernatants were collected and the radioactive content of the supernatants and pellets were determined. The supernatants were then applied to thin-layer chromatography (TLC) plates. The TLC plates were developed [solvent system: ethyl acetate (80%), methanol (10%) and acetic acid (10%)], and exposed on a phosphorimaging plate which was scanned the next day.

PC3(+) xenografts [4] = test: Blocking biodistribution study in PC3(+) xenografts, coinjection of non-radioactive DCFPyL; assay type: in vivo, mice; details: 60 min, coinjection of DCFPyL 1000×
Experimental: (§2) Tumor-bearing mice (tumor weights: 0.1–0.8 g) were injected while awake via the tail vein with each of the tracers [0.74–3.7 MBq (20 to 100 µCi), 10 to 80 pmol] and euthanized (via CO2 inhalation) at selected times. […] Blood samples and tissues were excised from each animal, weighed, and radioactivity content was determined (Perkin Elmer 2480 Wizard3). Radioactivity content in the blood and each tissue was expressed as % injected dose per gram of tissue [%ID/g; (Formula (1))] and then normalized for body weight to a 20 g mouse (Formula (2)) from which Tissue:Muscle ratios [T:M; (Formula (3))] were determined as follows:(1) %ID/g =[counts per minute cpmtissue / tissue weight g]×100/cpmtotal injected dose
(§3) %ID/g (normalized to a 20 g mouse) = (%ID/g) × (body weight/20 g)(2)
(§4) (3) T:M=%ID/gtissue/%ID/gmuscle

PC3(+) xenografts [5] = test: In vivo biodistribution in PC3(+) xenograft mice; set-up: key to salivary gland T:M / Femur T:M / Blood T:M / Kidney T:M / Liver T:M: T:M = (%ID/g in tissue) / (%ID/g in muscle)
Experimental: as §1, §2, §3, §4

PC3(−) xenografts = test: In vivo biodistribution in PC3(−) xenograft mice (negative control); details: 60 min; mean ± SE, n = 8–10
Experimental: as §1, §2, §3, §4

O=C(O)CC[C@H](NC(=O)N[C@@H](CCCCNC(=O)CO/N=C\c1ccc(F)nc1)C(=O)O)C(=O)O [1b, (((S)-5-(2-(aminooxy)acetamido)-1-carboxypentyl)carbamoyl)-L-glutamic acid 6-fluoronicotinaldehyde oxime]
Ki (PSMA [1]): 0.312 nM

O=C(O)CC[C@H](NC(=O)N[C@@H](CCCCNC(=O)CCCCCO/N=C\c1ccc([18F])nc1)C(=O)O)C(=O)O [[^18F]2b]
Kd (PSMA [2]): 0.489 nM
%Parent compound in blood (TLC analysis) [3]: 78.8 ± 2.6%
decrease of PC3(+) tumor T:M in blocked group compared to non-blocked group (PC3(+) xenografts [4]): 85%
decrease of PC3(+) tumor T:M compared to [18F]DCFPyL (PC3(+) xenografts [5]; 60 min): 27%
decrease of blood radioactivity compared to [18F]DCFPyL (PC3(+) xenografts [5]; 60 min): 27%
Radioactivity in the blood (PC3(+) xenografts [5]; 60 min (Figure 5A)): 0.377 %ID/g
Blood T:M (PC3(+) xenografts [5]; 60 min, mean ± SE, n = 8–10): 2.04 ± 0.11
Femur T:M (PC3(+) xenografts [5]; 60 min, mean ± SE, n = 8–10): 2.00 ± 0.18
Kidney T:M (PC3(+) xenografts [5]; 60 min, mean ± SE, n = 8–10): 814.2 ± 71.9
Liver T:M (PC3(+) xenografts [5]; 60 min, mean ± SE, n = 8–10): 44.6 ± 3.8
PC3(+) Tumor T:M (PC3(+) xenografts [5]; 60 min, mean ± SE, n = 8–10): 90 and 89.9 ± 7.6
PC3(−) Tumor T:M (PC3(−) xenografts): 1.65 ± 0.20

O=C(O)CC[C@H](NC(=O)N[C@@H](CCCCNC(=O)CCCCCO/N=C\c1ccc(F)nc1)C(=O)O)C(=O)O [2b, (((. S)-5-(6-(Aminooxy)hexanamido)-1-carboxypentyl)carbamoyl)-L-glutamic acid 6-fluoronicotinaldehyde oxime]
Ki (PSMA [1]): 0.901 nM

O=C(O)CC[C@H](NC(=O)N[C@@H](CCCCNC(=O)CCCCCO/N=C\c1ccc(F)cc1)C(=O)O)C(=O)O [2a, (((. S)-5-(6-(Aminooxy)hexanamido)-1-carboxypentyl)carbamoyl)-L-glutamic acid 4-fluorobenzaldehyde oxime]
Ki (PSMA [1]): 0.621 nM
